Test results: patent publication US20060281899A1, “Mutants of biotin binding protein” (priority 2002, published 2006)
Like-named read-outs stand apart in the source and are kept apart here.

Key:
[1] = IAsys optical biosensor, affinity of avidin and avidin mutants towards 2-iminobiotin; assay type: binding
Experimental: Reversibility of biotin binding was measured for avidin and the mutants with an IAsys optical biosensor (Laitinen, O. H. et al., FEBS Lett 461 (1999), 52-8). Protein samples were allowed to bind to a biotin-aminosilane cuvette in PBS containing 1 M NaCl. After the equilibrium was reached, biotin-containing buffer was added and the dissociation of the proteins was monitored. The affinities of the proteins towards 2-iminobiotin were determined with an IAsys optical biosensor (Marttila, A. T. et al. FEBS Lett 441 (1998), 313-7). Biotin-binding activity of the mutants Avd-ci and Avd-ccci after heat treatment was studied with a microtiter plate assay. Protein samples, 5 μg/ml concentration in PBS, were heated for various time periods at 99.9° C. and then chilled on ice. The samples were transferred to a Nunc Maxisorp-plate and incubated at 37° C. for 2 h. The wells were washed three times with PBS-Tween (0.05% v/v). After that the wells were blocked with PBS containing 1% BSA at 37° C. for 30 minutes and washed again with PBS-Tween. Next, biotinylated alkaline phosphatase (Sigma) in PBS, 1% BSA was added and incubated at 37° C. for one hour. Once again, the wells were washed with PBS-Tween and the PNPP substrate in DEA buffer (1 mg/ml) was applied to the wells. The absorbances at 405 nm were measured after incubation for 45 minutes.

[2] = Microparticle analysis, BF523-biotin binding of protein-coated particles before and after 95° C.; assay type: physicochemical; details: 30 minutes at 95° C., BF523-biotin added after treatment (iv)
Experimental: Before the analysis, 3.22 μm microparticles with COOH-group/0.852 nm2 (Bangs laboratories, Fishers, Ind., USA) were covalently coated with biotin-binding proteins. Microparticles (1*108 pcs) were washed twice with H20 by sequential centrifuging (5000 g; 3 min) and aspiration, and resuspended in 200 μl PB buffer (50 mM NaH2PO4-HCl, pH 3.0). A solution of biotin binding protein (50 μl, 1 mg/ml or 3 mg/ml, 50 mM Na-acetate pH 4.0) was added while vortexing. The suspension was incubated for 1 h (500 rpm; 23° C.). Particles were washed with PB and with MES buffer (50 mM, pH 5.5) and suspended in MES buffer (200 μl). […] After the last wash particles were suspended in 100 μl volume and concentration of particles was determined with Multisizer 3 Coulter Counter (Beckman Coulter, Fullerton, Calif., USA). […]
Microparticles (5*106 pcs) were suspended in 900 μl of assay buffer and aliquoted in […] PCR-tubes (i-v; 180 μl/aliquot). […] The samples were measured with ArcDia TPX PlateReader (ArcDia Ltd.) (Soini, E., Meltola, N. J., Soini, A. E., Soukka, J., Soini, J. T. & Hanninen, P. E. (2000) Biochem. Soc. Trans. 28, 70-74). […]
The fluorescence emission efficiencies of the BF523-biotin conjugate (200 nM) was determined before and after the incubation (30 min) at 95° C. […]

[3] = 2-iminobiotin surface, values from Hytönen 2003, cited from earlier work

For “wt Avidin: Wild-type chicken avidin (SEQ ID NO 1), purified from chicken egg-white [reference compound]”, the Kd [1] is given as 25 nM, the “original signal after heat treatment of coated particles” value [2] is given as 9% and the kass [3] is given as “(5.5 ± 0.5) × 10^4 M^−1s^−1”. The kdiss [3] was “(1.9 ± 1.4) × 10^−3 s^−1”, the Kd ([3]; read-out: Kd detected directly from the binding curves) was 34 nM and the Kd ([3]; read-out: Kd detected from the equilibrium response data) was 22 nM.
